Tested on: healthy subjects
Test: Phase 1 study: Positive and Negative Affect Schedule (PANAS)
Format: in vivo, human
Settings: for PANAS-Negative, change from baseline, LS mean / PANAS-Positive, change from baseline, LS mean: Post-Treatment Day 0
From the text: In some embodiments, the Positive and Negative Affect Schedule (PANAS) is used to evaluate the safety and/or efficacy of psilocybin. The PANAS measures the acute emotional drug effects and comprises 2 mood scales that measure positive and negative affect. Positive affect refers to the propensity to experience positive emotions and interact with others positively. Negative affect involves experiencing the world in a more negative way. Subjects respond to 10 questions associated with negative affect and 10 questions associated with positive affect. The questions are scaled using a 5-point scale that ranges from “slightly or not at all (1)” to “extremely (5)”. A total higher score on the positive affect questions indicates more of a positive effect while a lower score on the negative affect questions indicates less of a negative affect. In some embodiments, after treating according to the methods of the disclosure, a subject experiences a decrease in negative affect score of the PANAS, between about 5% and about 100%, for example about 5%, about 10%, about 15%, about 20%, about 25%, about 30%, about 35%, about 40%, about 45%, about 50%, about 55%, about 60%, about 65%, about 70%, about 75%, about 80%, about 85%, about 90%, about 95%, or about 100%, compared to prior to treatment. In some embodiments, after treating according to the methods of the disclosure, a subject experiences an increase in positive affect score of the PANAS, between about 5% and about 100%, for example about 5%, about 10%, about 15%, about 20%, about 25%, about 30%, about 35%, about 40%, about 45%, about 50%, about 55%, about 60%, about 65%, about 70%, about 75%, about 80%, about 85%, about 90%, about 95%, or about 100%, about 110%, about 120%, about 130%, about 140%, about 150%, about 160%, about 170%, about 180%, about 190%, about 200%, about 210%, about 220%, about 230%, about 240%, about 250%, about 260%, about 270%, about 280%, about 290%, or about 300%, or more, compared to prior to treatment.
The effects of psilocybin usually started about 20 to 30 min after administration, becoming most intense in the first 90 to 120 min and gradually subsiding in about 5 to 6 hours. The subjects were asked to remain in the room for the duration of the session regardless of the intensity of the effects, preferably lying down and mostly silent unless they have a concern or need to communicate a discomfort or seek reassurance from the therapist, or use the restroom. A light meal and fruit were available for the subject after the session. After the acute effects of study drug administration had subsided, all subjects were assessed for safety and asked to complete the following assessments: PANAS and 5D-ASC. Medications used, if any, during the study drug administration session, and adverse events were recorded. The subjects also discussed their psilocybin experience with their therapist. The subject was discharged 6 to 8 hours post dose when, in the opinion of the investigator, the acute effects of psilocybin were resolved. After the acute effects of study drug administration subsided, subjects returned home accompanied by a family member, friend, or chaperone. The therapists checked with the subjects by phone at the end of the day to ensure that the subject arrived home safely.
The Positive and Negative Affects Schedule (PANAS) score was also evaluated to measure the effect of psilocybin.

CN(C)CCc1c[nH]c2cccc(OP(=O)(O)O)c12 [Psilocybin, psilocybin]
PANAS negative affect, mean increase (25 mg, baseline to day of dosing): 1.3 | PANAS-Negative, change from baseline, LS mean (Psilocybin 10 mg): −0.6 | PANAS-Positive, change from baseline, LS mean (Psilocybin 10 mg): 0.7 | PANAS-Negative, change from baseline, LS mean (Psilocybin 25 mg): 1.3 | PANAS-Positive, change from baseline, LS mean (Psilocybin 25 mg): −0.4

From US12377112B2, “Methods of treating neurocognitive disorders, chronic pain and reducing inflammation” (priority 2019, dated 2025)
